# Measured values from patent US8138196B2, “Antifungal wallboards and building materials and methods for the production thereof” (Syngenta Crop Protection, Inc., priority 2005, dated 2012).
# What was measured:
# Assay type in all cases: cell-based
# [1] = test system: Coniophora puteana; experiment: radial mycelial growth on fungicide amended agar; conditions: estimated from graph of % activity (radial mycelial growth relative to agar without fungicide) against concentration
# Protocol: Stem cultures of Coniophora puteana were produced by propagating the fungus on a growth medium comprising yeast extract (10 g), glycerol (20 ml), magnesium sulphate (0.5 g), sodium nitrate (6.0 g), potassium chloride (0.5 g), potassium dihydrogen orthophosphate (1.5 g), agar (20 g) in distilled water (980 ml).
# Fungicides were added at levels of 5000, 100, 10, 1, 0.1 and 0.01 mg fungicide/litre of growth medium (described above) to give […] different growth medium compositions for each fungicide. Mycelial plugs were taken from the stem cultures and transferred upside down onto petri dishes containing the fungicide amended agar.
# The radial mycelial growth of the fungus was measured individually on all test petri dishes. The results are expressed as % activity relative to the radial growth on agar without fungicide.
# For each fungicide, a graph was drawn of percentage activity against concentration of fungicide in the growth medium. From this graph, the concentrations of fungicide required to achieve 80% activity was estimated. These figures are given in the results table.
# [2] = test system: Alternaria tenuissima (DSM 63360); experiment: Example 3 liquid culture assay on 24 well plates, solo and 2-way mixtures
# Source text: (§1) Alternaria tenuissima (DSM 63360), Penicillium chrysogenum (DSM 895), Stachybotrys chartarum (DSM2144), Aspergillus niger (DSM 63263), Aspergillus versicolor (DSM 1943) and Aureobasidium pullulans (ATCC 15233) were separately cultivated on PDA media to […] sporulation. Spore suspensions were produced for each fungi. Spore concentrations of approx. 100.000 spores/ml were used.
# (§2) Test method used: liquid culture assay on 24 well plates.
# (§3) For solo (i.e. single) ai testing the formulated fungicide (100 ul) was filled into the 24 well plates and 100 ul distilled water was added. Afterwards 800 ul of 0.3% AE media was added to the plate. The spore suspension of the specific fungi was added to this media in advance containing approx. 100,000 spores/ml. The 24 well plates were sealed and incubated at 24° C.
# (§4) Dependent on the growth properties of each organisms, the evaluation was done after 3 to 6 days, when the surface of the check well was covered with mycelium. The evaluation was performed by assessing the growth of the fungi related to the check growth. The results are expressed as % activity relative to the check (values of 0-100% growth). Afterwards the results were converted in % O growth inhibition.
# (§5) For synergism testing of the 2-way mixtures 100 ul of each fungicide were filled into 24 well plates and 800 ul of 0.3% AE media containing the spore suspension was added. Different ratios of the 2 fungicide rates were tested at the same time.
# (§6) For the mixtures of different fungicides the synergism was calculated based on the Colby equation, which is described below: […]
# (§7) The fungicidal action to be expected, We, for a given combination of two fungicides can be calculated as follows (see COLBY, S. R. “Calculating synergistic and antagonistic response of herbicide combinations”. Weeds 15, pages 20-22; 1967): We=X+[Y×(100−X)/100] wherein: • X=% activity in the case of treatment with the compound of formula I at rate x, in comparison with untreated control (=0%). • Y=% activity in the case of treatment with a compound of formula II at rate y, in comparison with untreated control. • We=expected activity (% activity in comparison with untreated control) after treatment with the compound of formula I and a compound of formula II at a rate of x+y kg of active ingredient.
# (§8) If the activity actually observed is greater than the expected value We (factor observed activity/expected activity >1.2), there is a synergistic effect.
# [3] = test system: Aspergillus versicolor (DSM 1943); experiment: as above; conditions: test 006-2005
# Source text: as §1, §2, §3, §4, §5, §6, §7, §8
# [4] = test system: Aureobasidium pullulans (ATCC 15233); experiment: as above
# Source text: as §1, §2, §3, §4, §5, §6, §7, §8
# [5] = test system: Stachybotrys chartarum (DSM2144); experiment: as above; conditions: test 006-2005; rate (AZO) 0.8 mg ai/l
# Source text: as §1, §2, §3, §4, §5, §6, §7, §8
# [6] = test system: Aspergillus niger (DSM 63263); experiment: Example 4 liquid culture assay on 24 and 48 well plates, 3 way mixtures; conditions: A. niger, AZO 0.05 mg ai/l
# Source text: as §1, with “For test 006-2005: Alternaria” for “Alternaria”, “Cladosporium cladosporoides (DSM62121),” for “Stachybotrys chartarum (DSM2144),”, “fungus.” for “fungi.”, “100,000” for “100.000”
# For test 015-2006: Alternaria tenuissima (DSM 63360), Penicillium pinophilum (CBS342.61), Gliocladium virens (DSM1963), Aspergillus niger (DSM 63263), Stachybotrys chartarum (DSM 2144) and Aureobasidium pullulans (ATCC 15233) were separately cultivated on PDA media to […] sporulation. Spore suspensions were produced for each fungus. Spore concentrations of approx. 100,000 spores/ml were used.
# (§9) Test method used: liquid culture assay on 24 and 48 well plates respectively.
# (§10) For testing of the 3 way mixtures each of the formulated fungicide (100 ul) was filled into the 24 and 48 well plates respectively. Afterwards 700 ul of 0.3% AE media was added to the plate. The spore suspension of the specific fungi was added to this media in advance containing approx. 100,000 spores/ml. For testing the solo compounds the equivalent of distilled water was added instead of the formulated fungicide volume of the mixing partners. The plates were then sealed and incubated at 24° C.
# as §4, with “%” for “% O”
# (§11) For the mixtures of different fungicides the synergism was calculated based on the Colby equation, which is described above.
# [7] = test system: Aspergillus versicolor (DSM 1943); experiment: as above; conditions: test 006-2005, A. versicolor
# Source text: as §1, with “For test 006-2005: Alternaria” for “Alternaria”, “Cladosporium cladosporoides (DSM62121),” for “Stachybotrys chartarum (DSM2144),”, “fungus.” for “fungi.”, “100,000” for “100.000”
# as §9, §10
# as §4, with “%” for “% O”
# as §11
# [8] = test 006-2005, rate (AZO) 0.05 mg ai/l
# [9] = test 006-2005, rate (AZO) 0.2 mg ai/l
# [10] = test 006-2005, rate (AZO) 0.8 mg ai/l
structure (smiles),measurement,setting,value
CO/C=C(/C(=O)OC)c1ccccc1Oc1cc(Oc2ccccc2C#N)ncn1 [Azoxystrobin],Concentration required for 80% Activity,[1],0.38 mg/L
same,inh % (AZO alone),[2]; [8],10%
same,inh % (AZO alone),[2]; [9],10%
same,inh % (AZO alone),[2]; [10],10%
same,inh % (AZO alone),"[2]; test 006-2005, rate (AZO) 100 mg ai/l",30%
same,inh % (AZO alone),"[2]; test 015-2005, rate (AZO) 0.4 mg ai/l",10%
same,inh % (AZO alone),"[2]; test 015-2005, rate (AZO) 0.8 mg ai/l",10%
same,inh % (AZO alone),"[2]; test 015-2005, rate (AZO) 1.6 mg ai/l",10%
same,inh % (AZO alone),"[2]; test 015-2005, rate (AZO) 3.1 mg ai/l",10%
same,inh % (AZO alone),"[2]; test 015-2005, rate (AZO) 6.25 mg ai/l",10%
same,inh % (AZO alone),[3]; rate (AZO) 0.8 mg ai/l,30%
same,inh % (AZO alone),[3]; rate (AZO) 1.6 mg ai/l,30%
same,inh % (AZO alone),[4]; [8],0%
same,inh % (AZO alone),[4]; [9],10%
same,inh % (AZO alone),[4]; [10],10%
same,inh % (AZO alone),"[4]; test 006-2005, rate (AZO) 1.6 mg ai/l",10%
same,inh % (AZO alone),"[4]; test 006-2005, rate (AZO) 3.12 mg ai/l",10%
same,inh % (AZO alone),"[4]; test 006-2005, rate (AZO) 12.5 mg ai/l",10%
same,inh % (AZO alone),"[4]; test 015-2005, rate (AZO) 12.5 mg ai/l",0%
same,inh % (AZO alone),"[4]; test 015-2005, rate (AZO) 25 mg ai/l",0%
same,inh % (AZO alone),"[4]; test 015-2005, rate (AZO) 50 mg ai/l",0%
same,inh % (AZO alone),"[4]; test 015-2005, rate (AZO) 100 mg ai/l",0%
same,inh % (AZO alone),[5],10%
same,inh % (AZO alone),[6]; test 006-2005,10%
same,inh % (AZO alone),[6]; test 015-2005,0%
same,inh % (AZO alone),[7]; AZO 0.05 mg ai/l,10%
same,inh % (AZO alone),[7]; AZO 0.2 mg ai/l,30%
same,inh % (AZO alone),[7]; AZO 0.8 mg ai/l,30%
same,inh % (AZO alone),[7]; AZO 1.6 mg ai/l,30%
same,inh % (AZO alone),[7]; AZO 3.12 mg ai/l,30%
same,inh % (AZO alone),[7]; AZO 12.5 mg ai/l,30%
same,inh % (AZO alone),[7]; AZO 50 mg ai/l,30%
same,inh % (AZO alone),[7]; AZO 100 mg ai/l,30%
